Assay results: PubChem BioAssay (NCI)
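Growth conditions: 96-well plates. Treatment: test compound, 48 hours, 5 concentrations. Analysis: linear interpolation between bracketing concentrations; unreached endpoints set to highest concentration. TGI: concentration producing complete growth inhibition.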

Tests used:
Experiment in all cases: growth of human tumour cells (NCI), 48 h
[1] = tested on: A498 renal
[2] = tested on: SF-539 CNS
[3] = tested on: SR leukemia
[4] = tested on: RPMI-8226 leukemia
[5] = tested on: HT29 colon
[6] = tested on: SK-MEL-28 melanoma
[7] = tested on: HOP-18 NSCLC
[8] = tested on: MALME-3M melanoma
[9] = tested on: LOX IMVI melanoma
[10] = tested on: RXF-631 renal
[11] = tested on: M14 melanoma
[12] = tested on: SF-268 CNS
[13] = tested on: NCI-H226 lung
[14] = tested on: SNB-19 CNS
[15] = tested on: OVCAR-5 ovarian
[16] = tested on: DLD-1 colon
[17] = tested on: HOP-62 NSCLC
[18] = tested on: U251 CNS
[19] = tested on: DMS 114 small cell lung
[20] = tested on: ACHN renal
[21] = tested on: HL-60(TB) leukemia
[22] = tested on: MOLT-4 leukemia
[23] = tested on: CCRF-CEM leukemia
[24] = tested on: LXFL 529 NSCLC
[25] = tested on: SW-620 colon
[26] = tested on: COLO 205 colon
[27] = tested on: RXF 393 renal
[28] = tested on: HCC-2998 colon
[29] = tested on: UACC-62 melanoma
[30] = tested on: 786-0 renal
[31] = tested on: SK-MEL-2 melanoma
[32] = tested on: K-562 leukemia
[33] = tested on: DMS 273 small cell lung
[34] = tested on: HOP-92 NSCLC
[35] = tested on: EKVX NSCLC
[36] = tested on: SK-OV-3 ovarian
[37] = tested on: TK-10 renal
[38] = tested on: KM12 colon
[39] = tested on: OVCAR-8 ovarian
[40] = tested on: SNB-75 CNS
[41] = tested on: CAKI-1 renal
[42] = tested on: KM20L2 colon
[43] = tested on: HCT-116 colon
[44] = tested on: NCI-H23 lung
[45] = tested on: NCI-H460 lung
[46] = tested on: OVCAR-3 ovarian
[47] = tested on: NCI-H522 lung
[48] = tested on: UACC-257 melanoma
[49] = tested on: SF-295 CNS
[50] = tested on: IGROV1 ovarian
[51] = tested on: OVCAR-4 ovarian
[52] = tested on: XF 498 CNS
[53] = tested on: M19-MEL melanoma
[54] = tested on: UO-31 renal
[55] = tested on: SK-MEL-5 melanoma
[56] = tested on: SNB-78 CNS
[57] = tested on: SN12C renal
[58] = tested on: A549 NSCLC
[59] = tested on: HCT-15 colon

CCCC[C@H](CCc1ccccc1)N(C(=O)OC)N1CCC[C@H]1COC
TGI [1]: 34.6 µM
TGI [2]: 33 µM
TGI [3]: > 100 µM
TGI [4]: > 100 µM
TGI [5]: 29.4 µM
TGI [6]: 38 µM
TGI [7]: 53.1 µM
TGI [8]: 32.1 µM
TGI [9]: 34.9 µM
TGI [10]: 32.4 µM
TGI [11]: 82.6 µM
TGI [12]: 43 µM
TGI [13]: 36.2 µM
TGI [14]: 30.4 µM
TGI [15]: 32.4 µM
TGI [16]: 34.8 µM
TGI [17]: 40.4 µM
TGI [18]: 29.1 µM
TGI [19]: 30.2 µM
TGI [20]: 30.4 µM
TGI [21]: > 100 µM
TGI [22]: > 100 µM
TGI [23]: 31.3 µM
TGI [24]: 39.6 µM
TGI [25]: 29.8 µM
TGI [26]: 30.8 µM
TGI [27]: 32.9 µM
TGI [28]: 28.1 µM
TGI [29]: 30.9 µM
TGI [30]: 45.2 µM
TGI [31]: 34.1 µM
TGI [32]: 61.2 µM
TGI [33]: 35.6 µM
TGI [34]: 40.5 µM
TGI [35]: 35.2 µM
TGI [36]: 60.2 µM
TGI [37]: 79.3 µM
TGI [38]: 35.9 µM
TGI [39]: 71.5 µM
TGI [40]: 79.1 µM
TGI [41]: > 100 µM
TGI [42]: 30.2 µM
TGI [43]: 28.2 µM
TGI [44]: 32 µM
TGI [45]: 31.6 µM
TGI [46]: 32.3 µM
TGI [47]: 28.1 µM
TGI [48]: 36.2 µM
TGI [49]: 33.5 µM
TGI [50]: 56.8 µM
TGI [51]: 39.9 µM
TGI [52]: 28.5 µM
TGI [53]: 40.4 µM
TGI [54]: 35.4 µM
TGI [55]: 32.9 µM
TGI [56]: 47.3 µM
TGI [57]: 32.7 µM
TGI [58]: 67.1 µM

O=CC1=CCCN(CCc2c[nH]c3ccccc23)C1
TGI [2]: 108 µM
TGI [3]: > 393 µM
TGI [4]: > 393 µM
TGI [5]: 116 µM
TGI [6]: 41.1 µM
TGI [7]: 109 µM
TGI [8]: 122 µM
TGI [9]: 12.2 µM
TGI [59]: 83.2 µM
TGI [10]: 102 µM
TGI [12]: 162 µM
TGI [13]: 102 µM
TGI [14]: 92.9 µM
TGI [15]: 126 µM
TGI [16]: 111 µM
TGI [17]: 104 µM
TGI [18]: 105 µM
TGI [19]: 146 µM
TGI [20]: 125 µM
TGI [21]: 91.3 µM
TGI [22]: > 393 µM
TGI [23]: > 393 µM
TGI [24]: 45.8 µM
TGI [25]: 89.9 µM
TGI [26]: 149 µM
TGI [27]: 85.8 µM
TGI [28]: 128 µM
TGI [29]: 111 µM
TGI [30]: 117 µM
TGI [31]: 119 µM
TGI [32]: > 393 µM
TGI [33]: 94.4 µM
TGI [34]: 121 µM
TGI [35]: 202 µM
TGI [36]: 224 µM
TGI [37]: 140 µM
TGI [38]: 128 µM
TGI [39]: 206 µM
TGI [41]: 141 µM
TGI [42]: 122 µM
TGI [43]: 80.4 µM
TGI [44]: 101 µM
TGI [45]: 105 µM
TGI [46]: 95.9 µM
TGI [47]: 139 µM
TGI [48]: 132 µM
TGI [49]: 112 µM
TGI [50]: 176 µM
TGI [53]: 152 µM
TGI [55]: 129 µM
TGI [57]: 109 µM
TGI [58]: > 393 µM

[N-]=[N+]=C1C(=O)C2CC3CC1CC2C3 (stereo not drawn)
TGI [1]: > 100 µM
TGI [2]: > 100 µM
TGI [3]: > 100 µM
TGI [4]: > 100 µM
TGI [5]: > 100 µM
TGI [6]: > 100 µM
TGI [7]: > 100 µM
TGI [8]: > 100 µM
TGI [9]: > 100 µM
TGI [59]: > 100 µM
TGI [10]: > 100 µM
TGI [11]: > 100 µM
TGI [12]: > 100 µM
TGI [13]: > 100 µM
TGI [14]: > 100 µM
TGI [15]: > 100 µM
TGI [16]: > 100 µM
TGI [17]: > 100 µM
TGI [18]: > 100 µM
TGI [19]: > 100 µM
TGI [20]: > 100 µM
TGI [21]: > 100 µM
TGI [22]: > 100 µM
TGI [23]: > 100 µM
TGI [24]: > 100 µM
TGI [25]: > 100 µM
TGI [26]: > 100 µM
TGI [27]: > 100 µM
TGI [28]: > 100 µM
TGI [29]: > 100 µM
TGI [30]: > 100 µM
TGI [31]: > 100 µM
TGI [32]: > 100 µM
TGI [33]: > 100 µM
TGI [34]: > 100 µM
TGI [35]: > 100 µM
TGI [36]: > 100 µM
TGI [37]: > 100 µM
TGI [38]: > 100 µM
TGI [39]: > 100 µM
TGI [40]: > 100 µM
TGI [41]: > 100 µM
TGI [42]: > 100 µM
TGI [43]: > 100 µM
TGI [44]: > 100 µM
TGI [45]: > 100 µM
TGI [46]: > 100 µM
TGI [47]: > 100 µM
TGI [48]: > 100 µM
TGI [49]: > 100 µM
TGI [50]: > 100 µM
TGI [51]: > 100 µM
TGI [53]: > 100 µM
TGI [54]: > 100 µM
TGI [55]: > 100 µM
TGI [56]: > 100 µM
TGI [57]: > 100 µM
TGI [58]: > 100 µM
